From patent US20200038514A1, “FOLATE CONJUGATE FOR USE IN TARGETING TUMOR ASSOCIATED MACROPHAGES” (ENDOCYTE, INC., priority 2016, published 2020)

Experiments:
TNBC PDX tumor = assay: In vivo activity against triple negative breast tumors (FIG. 10); design: species or system mice; settings: Conjugate 5 0.27 μmol/kg BIW two weeks; erubulin mesylate 1.0 μmol/kg SIW two weeks
Protocol: (§1) Mice were maintained and tumor volumes were measures according to Method 3.
(§2) Primary human TNBC model ST502 (2-4 mm in diameter) or primary human TNBC model ST738 (2-4 mm in diameter) were inoculated subcutaneously at the right flank of each mouse. Mice were randomized into experimental groups of 7 mice each and test articles were injected through the lateral tail vein under sterile conditions in a volume of […] of phosphate-buffered saline (PBS).

ST070 ovarian PDX tumors = assay: In vivo activity against ovarian tumors; design: species or system mice; settings: Conjugate 5 0.5 μmol/kg SIW; EC1456 4.0 μmol/kg SIW; paclitaxel 15 mg/kg SIW; two weeks
Protocol: as §1
as §2, with “Ovarian” for “TNBC”, “ST070 fragments” for “ST502 (2-4 mm in diameter) or primary human TNBC model ST738”

**Q.** With erubulin mesylate [reference compound] as the compound, how does the “TNBC PDX tumor size compared to untreated control” value (TNBC PDX tumor) read?
**A.** The value was “did not decrease TNBC PDX tumor size”.

**Q.** With `CC(=O)O[C@H]1C(=O)[C@@]2(C)[C@H]([C@H](OC(=O)c3ccccc3)[C@]3(O)C[C@H](OC(=O)[C@H](O)[C@@H](NC(=O)c4ccccc4)c4ccccc4)C(C)=C1C3(C)C)[C@]1(OC(C)=O)CO[C@@H]1C[C@@H]2O` [paclitaxel, reference compound] as the compound, how does the “ovarian PDX tumor size compared to untreated control” value (ST070 ovarian PDX tumors) read?
**A.** Its value is “did not decrease ovarian PDX tumor size”.
